Reference: PubChem BioAssay (NCI)
Values joined by “and” are separate entries in the source; they are usually repeats but may differ in a detail not shown here. Equal entries are not always repeated.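 Following 48 hours of exposure in 96-well plates, responses at five concentrations were used to interpolate endpoints linearly. GI50 is the concentration that inhibits growth by half. Definition used: TGI = concentration required for complete inhibition of growth.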

Assays:
Experiment in all cases: DTP human tumour cell line panel, 48 h
HT29 colon = test system: HT29 colon
SF-268 CNS = test system: SF-268 CNS
K-562 leukemia = test system: K-562 leukemia
LOX IMVI melanoma = test system: LOX IMVI melanoma
OVCAR-3 ovarian = test system: OVCAR-3 ovarian
UO-31 renal = test system: UO-31 renal
SK-MEL-2 melanoma = test system: SK-MEL-2 melanoma
OVCAR-5 ovarian = test system: OVCAR-5 ovarian
HOP-62 NSCLC = test system: HOP-62 NSCLC
SK-MEL-28 melanoma = test system: SK-MEL-28 melanoma

## CCn1c(-c2nonc2N)nc2c(C#CC(C)(C)O)nc(OC[C@H](N)c3ccccc3)cc21
HT29 colon
  GI50: 4.11 µM
  TGI: 8.81 µM
SF-268 CNS
  GI50: 4.94 µM
  TGI: 11.2 µM
K-562 leukemia
  GI50: 5.09 µM
  TGI: 14 µM
LOX IMVI melanoma
  GI50: 3.84 µM
  TGI: 7.89 µM
OVCAR-3 ovarian
  GI50: 3.56 µM
  TGI: 6.84 µM
UO-31 renal
  GI50: 2.91 µM
  TGI: 6.83 µM
SK-MEL-2 melanoma
  GI50: 4.12 µM
  TGI: 8.24 µM
OVCAR-5 ovarian
  GI50: 5.69 µM
  TGI: 9.99 µM
HOP-62 NSCLC
  GI50: 5.54 µM
  TGI: 9.99 µM
SK-MEL-28 melanoma
  GI50: 4.75 µM
  TGI: 8.56 µM

## CC1(C)COC(c2cccnc2/C=N/O)=N1
HT29 colon
  TGI: > 100 µM
SF-268 CNS
  TGI: > 100 µM
K-562 leukemia
  TGI: > 100 µM
LOX IMVI melanoma
  TGI: > 100 µM
OVCAR-3 ovarian
  TGI: > 100 µM
UO-31 renal
  TGI: > 100 µM
SK-MEL-2 melanoma
  TGI: > 100 µM
OVCAR-5 ovarian
  TGI: > 100 µM
HOP-62 NSCLC
  TGI: > 100 µM
SK-MEL-28 melanoma
  TGI: > 100 µM

## CO/N=C/c1cc(OC)c(OC)c(OC)c1
HT29 colon
  TGI: > 100 µM
SF-268 CNS
  TGI: > 100 µM
K-562 leukemia
  TGI: > 100 µM
LOX IMVI melanoma
  TGI: > 100 µM
OVCAR-3 ovarian
  TGI: > 100 µM
UO-31 renal
  TGI: > 100 µM
SK-MEL-2 melanoma
  TGI: > 100 µM
OVCAR-5 ovarian
  TGI: > 100 µM
HOP-62 NSCLC
  TGI: > 100 µM
SK-MEL-28 melanoma
  TGI: > 100 µM

## COc1ccc2c3c([nH]c2c1[N+](=O)[O-])C(C)=NCC3
HT29 colon
  TGI: > 100 µM
SF-268 CNS
  TGI: 64.7 µM
K-562 leukemia
  TGI: > 100 µM
LOX IMVI melanoma
  TGI: > 100 µM
OVCAR-3 ovarian
  TGI: > 100 µM
UO-31 renal
  TGI: > 100 µM
SK-MEL-2 melanoma
  TGI: > 100 µM
OVCAR-5 ovarian
  TGI: > 100 µM
HOP-62 NSCLC
  TGI: > 100 µM
SK-MEL-28 melanoma
  TGI: > 100 µM

## O=C(/C=C/c1ccccc1O)c1ccccc1O
HT29 colon
  TGI: > 100 µM
SF-268 CNS
  TGI: > 100 µM
K-562 leukemia
  TGI: > 100 µM
LOX IMVI melanoma
  TGI: > 100 µM
OVCAR-3 ovarian
  TGI: > 100 µM
UO-31 renal
  TGI: > 100 µM
SK-MEL-2 melanoma
  TGI: > 100 µM
OVCAR-5 ovarian
  TGI: > 100 µM
HOP-62 NSCLC
  TGI: > 100 µM
SK-MEL-28 melanoma
  TGI: > 100 µM

## N#Cc1nc(Nc2cccc3ccccc23)sc1N
HT29 colon
  TGI: > 100 µM
SF-268 CNS
  TGI: > 100 µM
K-562 leukemia
  TGI: > 100 µM
LOX IMVI melanoma
  TGI: 33.4 µM
OVCAR-3 ovarian
  TGI: > 100 µM
UO-31 renal
  TGI: 49 µM
SK-MEL-2 melanoma
  TGI: 79.2 µM
OVCAR-5 ovarian
  TGI: > 100 µM
HOP-62 NSCLC
  TGI: > 100 µM
SK-MEL-28 melanoma
  TGI: > 100 µM

## COc1ccc(-n2cc(-c3cc(OC)c(OC)c(OC)c3)c(C(=O)C(F)(F)F)c2C)cc1
HT29 colon
  GI50: 9.75 µM
  TGI: > 100 µM
SF-268 CNS
  GI50: 99.5 µM
  TGI: > 100 µM
K-562 leukemia
  GI50: 22 µM
  TGI: > 100 µM
LOX IMVI melanoma
  GI50: 47.4 µM
  TGI: > 100 µM
OVCAR-3 ovarian
  GI50: 24.9 µM
  TGI: > 100 µM
UO-31 renal
  GI50: 4.6 µM
  TGI: > 100 µM
SK-MEL-2 melanoma
  GI50: > 100 µM
  TGI: > 100 µM
OVCAR-5 ovarian
  GI50: > 100 µM
  TGI: > 100 µM
HOP-62 NSCLC
  GI50: > 100 µM
  TGI: > 100 µM
SK-MEL-28 melanoma
  GI50: > 100 µM
  TGI: > 100 µM

## O/N=C/C1C(OCc2ccccc2)C(OCc2ccccc2)C(OCc2ccccc2)CN1Cc1ccccc1 (stereo not given)
HT29 colon
  GI50: 10.7 µM and 3.59 µM
  TGI: 78.7 µM and > 100 µM
SF-268 CNS
  TGI: > 100 µM
K-562 leukemia
  TGI: 36.6 µM and > 100 µM
LOX IMVI melanoma
  TGI: 29.4 µM and > 100 µM
OVCAR-3 ovarian
  GI50: 16.9 µM and 7.69 µM
  TGI: 40.2 µM and > 100 µM
UO-31 renal
  GI50: 20 µM and 5.22 µM
  TGI: 65.9 µM and > 100 µM
SK-MEL-2 melanoma
  TGI: 53.9 µM
OVCAR-5 ovarian
  GI50: 20 µM and 9.34 µM
  TGI: 57.3 µM and > 100 µM
HOP-62 NSCLC
  GI50: 17.8 µM and 45.4 µM
  TGI: 53.1 µM and > 100 µM
SK-MEL-28 melanoma
  TGI: 44.1 µM and > 100 µM

## CC(C)N(C(=O)C12C3C4C5(C#N)C3C1(C#N)C5C42I)C(C)C (stereo not given)
HT29 colon
  TGI: > 100 µM
SF-268 CNS
  TGI: > 100 µM
K-562 leukemia
  TGI: > 59.4 µM
LOX IMVI melanoma
  TGI: > 78.8 µM
OVCAR-3 ovarian
  TGI: > 100 µM
UO-31 renal
  TGI: > 100 µM
SK-MEL-2 melanoma
  TGI: > 100 µM
OVCAR-5 ovarian
  TGI: > 100 µM
HOP-62 NSCLC
  TGI: > 100 µM
SK-MEL-28 melanoma
  TGI: > 100 µM

## COc1ccc2c(c1)CCCC(Br)C2=O (stereo not given)
HT29 colon
  TGI: 20.2 µM
SF-268 CNS
  TGI: 12.5 µM
K-562 leukemia
  TGI: 18.7 µM
LOX IMVI melanoma
  TGI: 3.04 µM
OVCAR-3 ovarian
  TGI: 37.7 µM
UO-31 renal
  TGI: 4.71 µM
SK-MEL-2 melanoma
  TGI: 4.36 µM
OVCAR-5 ovarian
  TGI: 20.8 µM
HOP-62 NSCLC
  TGI: 33.4 µM
SK-MEL-28 melanoma
  TGI: 23.3 µM

## CCCCCCCCCCCCOC1C(C(COC2OC(C3COC(C)(C)O3)C3OC(C)(C)OC23)NC(=O)Nc2ccc(C(=O)O)cc2)OC2OC(C)(C)OC21 (stereo not given)
HT29 colon
  GI50: 2.01 µM
  TGI: 6.88 µM
SF-268 CNS
  GI50: 3.37 µM
  TGI: 13.7 µM
K-562 leukemia
  GI50: 3.79 µM
  TGI: > 100 µM
LOX IMVI melanoma
  GI50: 3.23 µM
  TGI: 10.3 µM
OVCAR-3 ovarian
  GI50: 2.48 µM
  TGI: 7.49 µM
UO-31 renal
  GI50: 3.99 µM
  TGI: 13.3 µM
SK-MEL-2 melanoma
  GI50: 2.23 µM
  TGI: 4.82 µM
OVCAR-5 ovarian
  GI50: 2.67 µM
  TGI: 6.85 µM
HOP-62 NSCLC
  GI50: 3.07 µM
  TGI: 10.4 µM
SK-MEL-28 melanoma
  GI50: 3.16 µM
  TGI: 13 µM
